In patent publication US20220267356A1, “ARGINASE INHIBITORS AND METHODS OF USE THEREOF” (AstraZeneca AB, priority 2019, published 2022):
Like-named read-outs stand apart in the source and are kept apart here.

What was measured:
Human Arginase 1 = target: T1, Human Arginase 1 (Homo sapiens, UniProt P05089); test: Human Arginase 1 enzyme inhibition (thioarginine/DTNB absorbance at 412 nm); type: biochemical; settings: recombinant enzyme 5 nM, 60 min, room temperature
T1 construct: made in house; host or cells: E. coli
T1 sequence (P05089 1-322): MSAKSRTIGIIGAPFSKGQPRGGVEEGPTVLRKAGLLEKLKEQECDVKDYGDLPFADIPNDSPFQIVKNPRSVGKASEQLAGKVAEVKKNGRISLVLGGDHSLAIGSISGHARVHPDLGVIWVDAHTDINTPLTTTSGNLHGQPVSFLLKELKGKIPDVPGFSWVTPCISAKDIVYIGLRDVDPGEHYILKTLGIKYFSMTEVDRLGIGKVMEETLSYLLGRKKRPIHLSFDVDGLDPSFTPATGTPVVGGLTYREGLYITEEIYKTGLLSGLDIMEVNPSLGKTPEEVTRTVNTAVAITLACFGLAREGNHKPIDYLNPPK
Excerpt: (§1) The inhibitory effects of Examples 1-26 on the activity of Human Arginase 1 and Arginase 2 activity were quantified by measuring the formation of the thiol group from thioarginine using recombinant Arginase 1 or Arginase 2 produced from E. coli. The thiol group was detected with Ellman's reagent, 5,5′-dithiobis(2-nitrobenzoic acid) (DTNB). DTNB reacts with the thiol to give the mixed disulfide and 2-nitro-5-thiobenzoic acid (TNB) which is quantified by the absorbance of the anion (TNB^2−) at 412 nm.
(§2) The assays were run in clear 384 well plates (Greiner cat no: 781101). Various concentrations of Examples 1-26 in 300 nL DMSO were dispensed to assay plates using an Echo acoustic dispenser immediately followed by plate sealing and centrifugation. Two pre-mixes were prepared from reagents thawed immediately before addition to assay plates. Pre-mix one comprised human Arginase 1 or human Arginase 2, at a final concentration of 5 nM and 0.5 mM DTNB in assay buffer, 45 mM HEPES pH7.5, brij 35, 0.045% (w/v) and 100 μM MnCl2. Pre-mix two comprised freshly thawed 0.5 mM thioarginine in assay buffer. Fifteen microlitres of pre-mix one was dispensed to assay plates containing Examples 1-9, centrifuged and incubated for 30 minutes at room temperature prior to adding fifteen microlitres of pre-mix two.
(§3) Assay plates were centrifuged prior to reading absorbance at 412 nm in a Pherastar multi-mode plate reader to collect data at time point 0 (T0). The plates were incubated at room temperature for 60 min prior to reading again to collect data at time point 1 (T1). Data is derived by subtracting the A412 signal measured at T0 (time point 0) from that measured at T1 (time point 1). The data was transformed to % effect using the equation:
(§4) Compound % effect=100*[(X−min)/(max−min)],
(§5) where X represents the normalized value for the compound based on the Min (vehicle) and Max (reference compound) inhibition control.
(§6) The concentration of Examples 1-26 that inhibited the activity by 50% (i.e.the IC50) was calculated by plotting the % effect versus test compound concentration and fitting the data using the Genedata Screener Smart fit algorithm.

[1] = Bioavailability / pharmacokinetic study in male rats (IV and PO); type: in vivo; settings: rat; for Vd: read-out: Vdss; for Cmax / Tmax / AUC: PO 5 mg/kg; for bioavailability: 5 mg/kg, pro-drug when dosed as pro-drug, PO vs IV
Procedure: Example 14 is a prodrug form of Example 1. Examples 19 to 22 and 24 to 26 are prodrugs of example 18. […] Example 19 was formulated in 0.9% w/v saline pH 4 (adjusted with 1 M HCl) for IV dosing. The formulation was dosed at 2 mg/kg by femoral catheter to two male rats each (170-250 g). Jugular vein catheter serial blood samples were taken at 0.033, 0.083, 0.167, 0.5, 1, 2, 4, 8, and 24 hrs post-dose. For PO dosing, Example 19 was formulated in deionized water pH 4 (adjusted with 1 M HCl) and dosed at 5 mg/kg by oral gavage to two male rats each (170-250 g). Serial blood samples were taken by jugular vein catheter at 0.25, 0.5, 1, 1.5, 2, 3, 4, 8, and 24 hrs post dose. Plasma samples were generated from blood using low speed centrifugation. A single set of calibration standards containing Example 18 and Example 19 were prepared by spiking blank plasma. The samples and standards were extracted by precipitation with two volumes of acetonitrile followed by centrifugation. The results obtained were used to determine the Cl (mL/min/kg), Vdss (L/kg), Cmax (μM), AUC (μM h), tmax (h), and % F for both Example 18 and Example 19. Absolute bioavailability was determined by comparing the PO dose normalized AUC of Example 18 when dosed as Example 19, versus the dose normalized IV AUC of Example 18 when dosed as Example 18. Where appropriate, measured, not nominal, doses were used in the calculation. In an analogous fashion, the same procedure was repeated for Examples 14, 20 to 22, and 24 to 26.

Human Arginase 2 = target: T2, Human Arginase 2 (Homo sapiens, UniProt P78540); test: Human Arginase 2 enzyme inhibition (thioarginine/DTNB absorbance at 412 nm); type: biochemical; settings: recombinant enzyme 5 nM, 60 min, room temperature
T2 construct: made in house; host or cells: E. coli
T2 sequence (P78540 23-354): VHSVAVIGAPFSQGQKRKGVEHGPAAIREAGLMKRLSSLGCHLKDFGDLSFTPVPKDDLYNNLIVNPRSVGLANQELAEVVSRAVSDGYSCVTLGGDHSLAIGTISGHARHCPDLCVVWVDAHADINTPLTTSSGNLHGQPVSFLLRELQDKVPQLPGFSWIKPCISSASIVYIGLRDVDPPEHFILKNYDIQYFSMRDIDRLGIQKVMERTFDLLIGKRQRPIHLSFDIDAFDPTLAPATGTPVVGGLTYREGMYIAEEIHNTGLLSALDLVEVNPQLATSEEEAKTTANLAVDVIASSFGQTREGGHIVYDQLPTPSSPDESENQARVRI
Excerpt: as §1, §2, §3, §4, §5, §6

[2] = plasma, payload when dosed as payload, IV
[3] = pro-drug in plasma when dosed as pro-drug, IV 2 mg/kg
[4] = pro-drug in plasma when dosed as pro-drug

Row | SMILES | IC50 (Human Arginase 1) [nM] | clearance [1, 2] [mL/min/kg] | Vd [1, 2] [L/kg] | IC50 (Human Arginase 2) [nM] | clearance [1, 3] [mL/min/kg] | Vd [1, 3] [L/kg] | Cmax [1, 4] [nM] | Tmax [1, 4] [min] | bioavailability ([1]; plasma) [%] | AUC [1, 4] [µM·h]
1 | NC[C@@H](CCCB(O)O)[C@H](N)C(=O)O [Example 1, (2S,3R)-2-amino-3-(aminomethyl)-6-boronohexanoic acid] | 39 | 8.26 | 0.46 | 81 |  |  |  |  |  | 
2 | CN(C)C[C@@H](CCCB(O)O)[C@H](N)C(=O)O [Example 5, (2S,3R)-2-amino-6-borono-3-((dimethylamino)methyl)hexanoic acid] | 2090 |  |  | 4310 |  |  |  |  |  | 
3 | NC(=O)NC[C@@H](CCCB(O)O)[C@H](N)C(=O)O [Example 7, (2S,3R)-2-amino-6-borono-3-(ureidomethyl)hexanoic acid] | 2730 |  |  | 5580 |  |  |  |  |  | 
4 | CC(C)[C@H](N)C(=O)NC[C@@H](CCCB(O)O)[C@H](N)C(=O)O [Example 8, (2S,3R)-2-amino-3-(((S)-2-amino-3-methylbutanamido)methyl)-6-boronohexanoic acid] | 150 |  |  | 490 |  |  |  |  |  | 
5 | CC(=O)NC[C@@H](CCCB(O)O)[C@H](N)C(=O)O [Example 11, (2S,3R)-3-(acetamidomethyl)-2-amino-6-boronohexanoic acid] | 5080 |  |  | 5890 |  |  |  |  |  | 
6 | CN[C@H](C(=O)O)[C@@H](CN)CCCB(O)O [Example 12, (2S,3R)-3-(aminomethyl)-6-borono-2-(methylamino)hexanoic acid] | 400 |  |  | 1080 |  |  |  |  |  | 
7 | CC(C)[C@H](N)C(=O)N[C@H](C(=O)O)[C@@H](CN)CCCB(O)O [Example 13, (2S,3R)-2-((S)-2-Amino-3-methylbutanamido)-3-(aminomethyl)-6-boronohexanoic acid] | 13200 |  |  | 9460 |  |  |  |  |  | 
8 | NCC[C@@H](CCCB(O)O)[C@H](N)C(=O)O [Example 15, (2S,3R)-2-amino-3-(2-aminoethyl)-6-boronohexanoic acid] | 220 |  |  | 480 |  |  |  |  |  | 
9 | NC(=O)[C@@H](CCCB(O)O)[C@H](N)C(=O)O [Example 16, (2S,3S)-2-amino-6-borono-3-carbamoylhexanoic acid] | 19200 |  |  | 54400 |  |  |  |  |  | 
10 | CNC(=O)[C@@H](CCCB(O)O)[C@H](N)C(=O)O [Example 17, (2S,3S)-2-amino-6-borono-3-(methylcarbamoyl)hexanoic acid] | 34200 |  |  | > 100000 |  |  |  |  |  | 
11 | NC[C@H](CCCB(O)O)[C@H](N)C(=O)O [Example 18, (2S,3S)-2-amino-3-(aminomethyl)-6-boronohexanoic acid] | 90 | 7.3 | 0.38 | 220 |  |  |  |  |  | 
12 | CC(C)[C@H](N)C(=O)NC[C@H](CCCB(O)O)[C@H](N)C(=O)O [Example 19, (2S,3S)-2-amino-3-(((S)-2-amino-3-methylbutanamido)methyl)-6-boronohexanoic acid] | 60 |  |  | 110 | 16.4 | 0.47 | 660 | 30 | 8.3 | 1.4
13 | C[C@H](N)C(=O)NC[C@H](CCCB(O)O)[C@H](N)C(=O)O [Example 20, (2S,3S)-2-amino-3-(((S)-2-aminopropanamido)methyl)-6-boronohexanoic acid] | 9 |  |  | 140 | 12.5 | 0.21 | 440 | 45 | 5.1 | 1.25
14 | CC[C@H](N)C(=O)NC[C@H](CCCB(O)O)[C@H](N)C(=O)O [Example 21, (2S,3S)-2-amino-3-(((S)-2-aminobutanamido)methyl)-6-boronohexanoic acid] | 39 |  |  | 61 | 14.1 | 0.22 | 230 | 30 | 1.5 | 0.35
15 | NCC(=O)NC[C@H](CCCB(O)O)[C@H](N)C(=O)O [Example 24, (2S,3S)-2-amino-3-((2-aminoacetamido)methyl)-6-boronohexanoic acid] | 22 |  |  | 65 | 8.4 | 0.2 | 880 | 105 | 6.4 | 2.9

Results, then the compound that gave them:

Row | IC50 (Human Arginase 1) [nM] | clearance [1, 2] [mL/min/kg] | Vd [1, 2] [L/kg] | IC50 (Human Arginase 2) [nM] | clearance [1, 3] [mL/min/kg] | Vd [1, 3] [L/kg] | Cmax [1, 4] [nM] | Tmax [1, 4] [min] | bioavailability ([1]; plasma) [%] | AUC [1, 4] [µM·h] | SMILES
16 | 38600 |  |  | 85200 |  |  |  |  |  |  | N[C@H](C(=O)O)[C@H](CCCB(O)O)CN1CCOCC1 [Example 2, (2S,3R)-2-amino-6-borono-3-(morpholinomethyl)hexanoic acid]
17 | 7060 |  |  | 16300 |  |  |  |  |  |  | N[C@H](C(=O)O)[C@H](CCCB(O)O)CN1CCCCC1 [Example 3, (2S,3R)-2-amino-6-borono-3-(piperidin-1-ylmethyl)hexanoic acid]
18 | 870 |  |  | 770 |  |  |  |  |  |  | CNC[C@@H](CCCB(O)O)[C@H](N)C(=O)O [Example 4, (2S,3R)-2-amino-6-borono-3-((methylamino)methyl)hexanoic acid]
19 | 180 |  |  | 410 |  |  |  |  |  |  | CC[C@H](N)C(=O)NC[C@@H](CCCB(O)O)[C@H](N)C(=O)O [Example 9, (2S,3R)-2-amino-3-(((S)-2-aminobutanamido)methyl)-6-boronohexanoic acid]
20 | 160 |  |  | 360 |  |  |  |  |  |  | C[C@H](N)C(=O)NC[C@@H](CCCB(O)O)[C@H](N)C(=O)O [Example 10, (2S,3R)-2-amino-3-(((S)-2-aminopropanamido)methyl)-6-boronohexanoic acid]
21 | 2180 |  |  | 3900 | 46.1 | 0.47 | 130 | 15 |  |  | C[C@H](N)C(=O)N[C@H](C(=O)O)[C@@H](CN)CCCB(O)O [Example 14, (2S,3R)-3-(aminomethyl)-2-((S)-2-aminopropanamido)-6-boronohexanoic acid]
22 | 49 |  |  | 100 | 13.1 | 0.2 | 450 | 60 | 4.5 | 0.92 | CC[C@H](C)[C@H](N)C(=O)NC[C@H](CCCB(O)O)[C@H](N)C(=O)O [Example 22, (2S,3S)-2-amino-3-(((2S,3S)-2-amino-3-methylpentanamido)methyl)-6-boronohexanoic acid]
23 | 30 |  |  | 100 |  |  |  |  |  |  | CC(C)(C)[C@H](N)C(=O)NC[C@H](CCCB(O)O)[C@H](N)C(=O)O [Example 23, (2S,3S)-2-amino-3-(((S)-2-amino-3,3-dimethylbutanamido)methyl)-6-boronohexanoic acid]
